Reference: publication PMC6736736 (Molecular microbiology, 2019)

Columns and labels:
ZagA (YciC) [1] = target: T1, ZagA (YciC) (Bacillus subtilis, UniProt P94400); assay: inhibition of ZTP hydrolysis, malachite green assay; assay type: biochemical; conditions: substrate ZTP
ZagA (YciC) [2] = target: T1, ZagA (YciC); assay: inhibition of GTP hydrolysis, malachite green assay; assay type: biochemical; conditions: substrate GTP

T1 sequence (P94400 whole entry): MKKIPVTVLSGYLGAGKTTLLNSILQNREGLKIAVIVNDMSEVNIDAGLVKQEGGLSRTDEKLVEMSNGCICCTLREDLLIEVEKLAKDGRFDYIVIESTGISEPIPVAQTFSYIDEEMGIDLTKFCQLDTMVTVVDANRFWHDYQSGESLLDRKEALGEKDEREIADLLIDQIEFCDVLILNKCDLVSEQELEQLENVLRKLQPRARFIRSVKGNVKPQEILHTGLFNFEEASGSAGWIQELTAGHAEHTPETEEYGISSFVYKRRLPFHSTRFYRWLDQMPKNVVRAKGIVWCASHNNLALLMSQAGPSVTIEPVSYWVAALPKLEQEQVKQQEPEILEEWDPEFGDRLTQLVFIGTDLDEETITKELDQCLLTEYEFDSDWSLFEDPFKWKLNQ

Row | SMILES | inhibition of ZTPase activity (ZagA (YciC) [1]) | inhibition of GTPase activity (ZagA (YciC) [2])
1 | Nc1nc2c(ncn2[C@@H]2O[C@H](COP(=O)(O)OP(=O)(O)NP(=O)(O)O)[C@@H](O)[C@H]2O)c(=O)[nH]1 [GDP-NP] | GDP-NP, a non-hydrolyzable analog of GTP, inhibited ZTP hydrolysis | –
2 | NC(=O)c1ncn([C@@H]2O[C@H](COP(=O)(O)O)[C@@H](O)[C@H]2O)c1N [ZMP] | – | Conversely, ZMP inhibited GTP hydrolysis (Fig 4D)
